Experimental data from article PMC11091243, “PD-L1 targeted peptide demonstrates potent antitumor and immunomodulatory activity in cancer immunotherapy” (Frontiers in Immunology, 2024).

Assays:
[1] = system: MC38 cells; experiment: Flow cytometry binding to MC38 cells; format: cell-based, mouse; conditions: relatively low PD-L1 expression
Method: Fluorescence-based ELISA and cell-based tests were used to examine the binding specificity of PPL-C to PD-L1. To perform the ELISA, fluorescent plates were coated with 100 μL human PD-L1 (hPD-L1), mouse PD-L1 (mPD-L1), and BSA in PBS (pH 7.4) overnight at 4°C, respectively. Blocked the plates with 1% BSA (in PBST) for an hour at room temperature and rinsed twice with PBST. Then added peptides (20 μmol/L FITC-labeled PPL-C/Control peptide) and incubated for 1.5 hours at room temperature. With excitation at 488 nm and emission at 515 nm, the Cytation 3 instrument (BioTek) was used to measure the relative fluorescence intensity. Both attached and detached cells were used in the cell-based flow cytometry analysis. […] After that, cells were treated for 40 minutes at 4°C on an inversion shaker with PD-L1 antibody from Biolegend and 4 μmol/L FITC-labeled peptides (PPL-C/Control peptide). Each tube was washed twice with PBS following incubation and flow cytometry was carried out using a FACSort device. FlowJo software was used to evaluate the data that was acquired.

[2] = system: PD-L1-mediated suppression of CD4+ T cells; experiment: T-cell activation assay (CD4+ T cells on anti-CD3/PD-L1 coated plates); format: cell-based, mouse
Method: Following the manufacturer’s instructions, mouse peripheral blood mononuclear cells (PBMCs) were isolated from a healthy mouse using separation fluid. Then, CD4 (L3T4) MicroBeads were used to separate CD4+ T cells from PBMCs, and a CD4-PE/Cy5 antibody was employed to determine effectiveness. Cells were adjusted to a concentration of 5×10^5 cells/mL in IMDM supplemented with 10% FBS and 20 ng/mL IL-2 to produce CD4+ T-cell blasts. A 1:1 ratio of mouse T-activator CD3/CD28 beads was introduced to the cells. Every other day, new media was added, and on day 7, cells were collected and stored for later use. 100 μL of anti-mouse CD3 (1 μg/mL) were applied to each well and incubated at 4°C overnight. Next, the wells were rinsed twice with […] of PBS. The wells were then filled with 100 μL of PD-L1 […] and the plates were incubated at 37°C for 3 hours before receiving two PBS washes. Then, varying quantities of PD-L1 monoclonal antibodies and peptides (PPL-C or control peptide) were added to the appropriate wells, and the plates were incubated at 37°C for an hour. The wells were then washed twice with PBS. Finally, CD4^+ T cells (5×10^4 cells/well) were added, then centrifugated the plate at 1,000 RMP for 2 min. The cells were then cultured for three days at 37°C in a humidified incubator with 5% CO2. A mouse IFN-γ ELISA Kit was used to assess the quantity of IFN-γ in culture supernatant. […]

[3] = system: CD4+ T cells in MLR; experiment: Mixed lymphocyte reaction (DCs, CT26 tumor cells, CD4+ T cells); format: cell-based, mouse; conditions: 20 μmol/L, versus control and control peptides, day 3, n = 3
Method: Fresh PBMCs were cultured in IMDM at 37°C for 2 hours and washed twice in PBS. Then cells were cultured in IMDM supplemented with 10% FBS, 25 ng/mL GM-CSF, and 50 ng/mL IL-4. Fresh medium was added every three days. TNF-α (50 ng/mL) was added on the sixth day to stimulate the maturation of dendritic cells (DCs) for 24 hours. The mature DCs were then frozen to be harvested later. Solid tumor tissues from the CT26 tumor-bearing animal have been removed and fragmented to collect tumor cells. In RPMI 1640 medium supplemented with 10% FBS, 2 mM L-glutamine, […] streptomycin, and 200 U/mL penicillin, these fragments were subjected to digestion with a combination of triple enzymes (collagenase, DNase, and hyaluronidase) for a maximum of 2 hours. The resultant cell suspension was then grown in complete RPMI 1640 medium at 37°C with 5% CO2 for 24 hours. The goal of this culture phase was to re-establish PD-L1 expression on the tumor cell surface since collagenase digestion may have destroyed it. DCs and tumor cells were both given a 2-hour treatment with mitomycin C (MMC) at a dosage of 100 μg/mL before the start of mixed lymphocyte responses (MLR). After thawing, the CD4+ T cells were cultured for overnight. […] Cell growth and IFN-γ levels in culture supernatants were measured on day 3.

[4] = system: splenic lymphocyte subsets of CT26-bearing Balb/c mice; experiment: Flow cytometry of spleen lymphocytes of CT26-bearing mice after treatment; format: in vivo; conditions: mouse, in vivo
Method: (§1) The mice’s tumor volumes were measured by calipers after they were randomly allocated to various treatment groups. Every day tumor volumes were measured along axes (a and b) that are orthogonal to one another, and they were estimated by the equation tumor volume = π/6 × a × b^2. After the tumor was established (approximately 7 days), each group was subcutaneously injected with PPL-C (6 or 11 mg/kg), control peptide (11 mg/kg), endotoxin-free PD-L1 antibody (200 μg), or control antibody, following specific treatment procedures outlined in the flow chart. The Kaplan-Meier technique was used to determine survival differences for each group, and the log-rank test using the survival R package version 2.38-3 was applied to get the overall p-value.
To differentiate lymphocytes, spleen monocytes were separated via isodensity centrifugation. For flow cytometry evaluation, cell-surface and intracellular staining was achieved through reagents from BD Biosciences or Biolegend, following previously described protocols. Re-suspending the 1× 10^6 cells in 100 μL of PBS before incubating them with the appropriate antibodies. Data were collected using a BD Biosciences FACSCalibur flow cytometer, Germany, and analyzed using FlowJo 7.6 software, USA. Based on scatter signals and 7-Amino-actinomycin D fluorescence, dead cells, and cell debris were removed from the study.

[5] = system: CT26 tumor; format: in vivo, mouse
Method: The investigators conducting the animal studies were not blinded. […] The mice were then randomized into different treatment groups.
as §1

Compound: CC(C)[C@H](NC(=O)[C@H](CO)NC(=O)[C@@H](NC(=O)[C@@H](N)CO)C(C)C)C(=O)N[C@@H](CO)C(=O)N[C@@H](Cc1c[nH]cn1)C(=O)N[C@@H](Cc1ccccc1)C(=O)N[C@@H](CCC(N)=O)C(=O)N[C@@H](CCCCN)C(=O)N[C@H](C(=O)N[C@@H](Cc1c[nH]c2ccccc12)C(=O)N[C@H](C(=O)N[C@H](C(=O)NCC(=O)NCC(=O)NCC(=O)N[C@@H](CO)C(=O)N[C@@H](CCCCN)C(N)=O)C(C)C)C(C)C)C(C)C [PPL-C]
- Affinity to MC38 cells [1]: low affinity
- T-cell proliferation ([2]; 20 μmol/L, CCK-8, n = 3): increased significantly
- IFN-γ release of CD4+ T lymphocytes ([2]; versus control peptide, 3 days, ELISA, n = 3): significant increase
- IFN-γ release in MLR [3]: significantly higher release
- Percentage of NK cells in spleen (CD49b/Nkp46, upper right quadrant) [4]: 7.79%
- Increase in survival time of CT26 tumor-bearing mice ([5]; 11 mg/kg s.c. around the tumor, dosing-schedule study, saline as negative control): approximately 50%
- Increase in survival time compared to the control peptide ([5]; reduced dose, s.c. around the tumor every day or every other day): approximately 50%
- Survival time of CT26 tumor-bearing mice ([5]; reduced dose, s.c. around the tumor every day or every other day, n = 6, P<0.001): 81 days
